Nine compounds from ChEMBL document CHEMBL1201862, “PubChem BioAssay data set” (2004) can be followed below.

The source made the active and inactive calls. Cut-off read from the data, not from the text of the source, for most assays here: actives have a measured EC50 and inactives only a lower limit.

In test [1] the test system is BJ. As to the kind of experiment: cytotoxicity toward BJ-TERT fibroblasts, dose response, cell-based, RAS-independent, luminescence (AID 1933). The test is classed as functional. The conditions noted are these: Homo sapiens.
For test [2], the system named is BJ. As to the kind of experiment: cytotoxicity toward BJ-TERT-LT-ST fibroblasts, dose response, cell-based, RAS-independent, luminescence (AID 1935).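 Note: BJ fibroblasts immortalized with TERT plus LT and ST oncogenes.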 The test is classed as functional. The conditions noted are these: Homo sapiens.
Test [3] is described as follows: cytotoxicity toward DRD oncogenic fibroblasts, dose response, cell-based, non-viral oncogenic, luminescence (AID 1934). The test is classed as functional. The conditions noted are these: Homo sapiens.
In test [4] the test system is BJ. As to the kind of experiment: cells. The test is classed as functional, cell-based. The conditions noted are these: Homo sapiens.
Test [5] in a line: cytotoxicity in HEK-293T cells, dose response, cytotoxicity control for TCR NF-kB inhibitor project, luminescence, T-cell screen hits (AID 489026).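 Note: cells exposed to compound about 14 hours before the viability readout.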 The test is classed as functional, cell-based.
The nature of test [6]: THP-1 cell cytotoxicity, dose response, cytotoxicity control for non-replicating M. tuberculosis project (AID 489025). The test is classed as functional.
A short description of a further test: cells. The test is classed as functional.
For test [7], the target named is Glucose-6-phosphate 1-dehydrogenase (Homo sapiens, UniProt P11413). As to the kind of experiment: human G6PD enzyme inhibitors, dose response, selectivity assay for P. falciparum G6PD inhibitor project, biochemical, fluorescence (AID 504792). The test is classed as functional.
Glucose-6-phosphate 1-dehydrogenase, sequence (P11413 whole entry): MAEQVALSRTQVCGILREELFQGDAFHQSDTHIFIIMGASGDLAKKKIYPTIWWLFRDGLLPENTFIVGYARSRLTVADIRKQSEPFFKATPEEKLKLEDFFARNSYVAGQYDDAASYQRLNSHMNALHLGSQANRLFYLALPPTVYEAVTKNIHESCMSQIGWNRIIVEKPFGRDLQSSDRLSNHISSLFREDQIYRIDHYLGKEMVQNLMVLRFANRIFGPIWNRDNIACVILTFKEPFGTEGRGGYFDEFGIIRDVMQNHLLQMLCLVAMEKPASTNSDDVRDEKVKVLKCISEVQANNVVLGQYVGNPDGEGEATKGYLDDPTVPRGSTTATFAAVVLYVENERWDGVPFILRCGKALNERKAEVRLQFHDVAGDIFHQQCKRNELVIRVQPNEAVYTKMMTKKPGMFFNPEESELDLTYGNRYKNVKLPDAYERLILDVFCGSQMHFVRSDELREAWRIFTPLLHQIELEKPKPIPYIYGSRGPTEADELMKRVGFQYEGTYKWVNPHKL
Test [8] in a line: Luminescence Cell-Based Dose Confirmation HTS to Identify Activators of 5'UTR Stem-Loop Driven Alpha-Synuclein mRNA Translation in H4 Neuroglioblastoma Cells. [Related pubchem assays: 1829 (Project Summary), 1814 (Primary HTS)]. The test is classed as functional.
A further test concerns H4. As to the kind of experiment: Luminescence Cell-Based Dose Response HTS to Identify Activators of 5'UTR Stem-Loop Driven Prion Protein mRNA Translation in H4 Neuroglioblastoma Cells. [Related pubchem assays: 1829 (Project Summary), 1814 (Primary HTS)]. The test is classed as functional. The conditions noted are these: Homo sapiens.
Test [9] can be described thus: Luminescence Cell-Based Dose Response HTS to Identify Activators of Luciferase Translation or Activity in H4 […] Cells. [Related pubchem assays: 1829 (Project Summary), 1814 (Primary HTS)]. The test is classed as functional.
A short description of test [10]: inhibitors of firefly luciferase expression or activity, dose response, H4 neuroglioma cells, luminescence (AID 1990). The test is classed as functional, cell-based.
Test [11] in a line: inhibitors of SNCA 5'UTR-driven reporter translation, confirmation, H4 neuroglioma cells, luminescence (AID 1988). The test is classed as functional, cell-based.
Test [12] in a line: Luminescence Cell-Based Dose Response HTS to Identify Inhibitors of 5'UTR Stem-Loop Driven Prion Protein mRNA Translation in H4 Neuroglioblastoma Cells. [Related pubchem assays: 1827 (Project Summary), 1813 (Primary HTS)]. The test is classed as functional.
A short description of test [13]: cytotoxicity toward NIH3T3 fibroblasts, dose response, counter-screen, cell-based, ATP luminescence, mouse fibroblasts (AID 2010).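 Note: cells exposed to compound for about 90 hours before reading.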 The test is classed as functional.
The nature of test [14]: inhibitors of intracellular T. cruzi replication, confirmation, NIH3T3 host cells, beta-gal luminescence (AID 2044).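 Note: intracellular parasites grown in NIH/3T3 mouse fibroblasts as host cells; luminescent beta-galactosidase reporter signal from transgenic T. cruzi replicating inside host cells; inhibitors lower the luminescence signal.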 The test is classed as functional, cell-based.

As to `Cc1ccc2c(c1)C=CC(C#N)N2C(=O)c1ccccc1` (configuration not stated), the half-maximal effective concentration (EC50) was 3.69 µM (active) in the test on BJ [1], 25.5 µM (inconclusive) with BJ [2], 1.54 µM (active) in test [3] and > 150 µM (not active) in the test with BJ [4]. Also, in test [5], the IC50 was > 80 µM (inactive).
For the compound `CC(NC(=O)c1cc2cc(Br)ccc2oc1=N)c1ccccc1` (configuration not stated), in [6], the CC50 is 24.6 µM (active). In “cells”, the IC50 was 33.6 µM (active).
On to `C/C(Cn1nnc([N+](=O)[O-])n1)=N\NC(=O)c1ccccc1`, for which the IC50 in [7] was > 80 µM (inactive). Further, the EC50 (in test [8]; in the test with H4; in test [9]) was > 120 µM (not active) each time.
With `COc1ccc(NC(=O)c2cnc(SC)nc2)cc1`, in test [6], the CC50 is 18.1 µM (active). Also, the EC50 was > 120 µM (not active) in [8], 16 µM (active) with H4 and 14.8 µM (active) in [9]. Besides, in the test “cells”, the IC50 is 18.4 µM (active).
`Cc1cc(C)nc(SC2CC(=O)N(c3ccc(C)c(C)c3)C2=O)n1` (configuration not stated): the 50% cytotoxic concentration (CC50) in test [6] is > 40 µM (active).
With `Cc1ccc(/C=C/C(=O)NCCc2cccc(Cl)c2)o1`, the IC50 in test [7] is > 80 µM (inactive).
Regarding `Cc1ccc(CSc2nc3ccccc3cc2C=O)cc1`, the concentration for a half-maximal effect (EC50) was 0.689 µM (active) in the test with BJ [1]; 0.668 µM (active) in the test on BJ [2]; 1.59 µM (active) in test [3]; > 120 µM (not active) in [10]; 1.87 µM (active) in the test on BJ [4]; 9.33 µM (active) in [11]. Also, the half-maximal effective concentration (EC50) in test [12] is 11.9 µM (active).
On to `CCn1c(SCC(=O)Nc2ccccc2OC)nnc1-c1cnccn1`, for which the IC50 in [7] was > 80 µM (inactive).
In the case of `CCCCCOc1ccc(CSC2=NCCN2)cc1[N+](=O)[O-]`, in test [6], the CC50 was > 40 µM (active). The EC50 is > 60 µM (not active) in test [13]; 0.534 µM (active) in [14]; 14.1 µM (active) in [8]; 22.2 µM (active) with H4; > 120 µM (not active) in test [9].
